From US6429188B1, “Method for treating the endotoxic shock in mammals” (Universidad Complutense de Madrid, priority 1998, dated 2002)
pIC50: −log10 of the molar value.

Legend:
[1] = system: IL-6 production in peritoneal murin macrophages stimulated with LPS; assay: Production of IL-6 by peritoneal murine macrophages stimulated with LPS; type: cell-based, mouse; details: for Degree of inhibition of IL-6 production when added after stimulation with LPS: peptide added at different times after LPS; for pIC50: peritoneal murin macrophages stimulated with LPS, read-out: IC50 for inhibition of IL-6 production; for Highest degree of inhibition of IL-6 production: peritoneal murin macrophages, LPS 10 ngr./ml
Description: FIG. 3 represents the production of IL-6 by murin macrophages in culture (5×10^5 cells/ml) stimulated with 10 ngr/ml of LPS in presence or absence of 10^−8 M of VIP or PACAP over a period of 24 hours.
FIG. 4 represents the production of IL-6 by murin macrophages in culture (5×10^5 cells/ml) after 6 hours of culture with 10 ngr/ml of LPS and to which 10^−8 M of VIP or PACAP is added at different times.
In experiments carried out in vitro VIP and PACAP inhibit the production of IL-6 in peritoneal murin macrophages stimulated with LPS. The highest degree of inhibition reaches levels near to 90% and occurs with doses of stimulation of 10 ngr./ml of LPS.

circulating TNFα = assay: Levels of circulating TNFα in mice after injection of LPS; type: in vivo; details: 2 hours after 25 μgr LPS, simultaneous 5 nmol peptide
Description: In an experiment carried out with mice the levels of circulating TNFα 2 hours after injection of 25 μgr. of LPS approach 4 ngr./ml. Simultaneous administration of 5 nmol of VIP or PACAP reduced said levels by 60%.

mRNA of TNFα = assay: Northern blot for TNFα mRNA in LPS-activated macrophages; type: cell-based, Mouse; details: macrophages activated with LPS and exposed to peptide
Description: (§1) Mouse macrophages were submitted to the experimental conditions of examples 1 and 3 and their mRNA isolated. This was then analysed using the Northern Blot technique to detect mRNA of TNFα and IL-6.

mRNA of IL-6 = assay: Northern blot for IL-6 mRNA in LPS-activated macrophages; type: cell-based, Mouse; details: macrophages activated with LPS and exposed to peptide
Description: as §1

[2] = system: TNFα production in peritoneal murin macrophages stimulated with LPS; assay: Production of TNFα by peritoneal murine macrophages stimulated with LPS; type: cell-based, mouse; details: for Inhibitory effect on TNFα production when added after 4 hours: peptide added 4 hours after LPS; for Inhibitory effect on TNFα production when added up until 1 hour after LPS stimulation: peptide added up until 1 hour after LPS, compared with simultaneous addition; for pIC50: peritoneal murin macrophages stimulated with LPS, read-out: IC50 for inhibition of TNFα production; for Highest degree of inhibition of TNFα production: peritoneal murin macrophages, LPS 1 to 10 ng/ml
Description: FIG. 1 represents the production of TNFα by murin macrophages in culture (5×10^5 […]) stimulated with 10 ngr/ml of LPS in presence or absence of 10^−8 M of VIP or PACAP over a period of 24 hours.
FIG. 2 represents the production of TNFα by murin macrophages in culture (5×10^5 cells/ml) after 6 hours of culture with 10 ngr/ml of LPS and to which 10^−8 M of VIP or PACAP is added at different times.
In experiments carried out in vitro VIP and PACAP inhibit the production of TNFα in peritoneal murin macrophages stimulated with LPS. The highest degree of inhibition reaches levels near to 60% and occurs with doses of stimulation between 1 and 10 ng/ml of LPS. The IC50 is around 80 pM, both for VIP and for PACAP and the effect was observed until the end of the experiment (see FIG. 1). The inhibitory effect is the same if both neuropeptides are added up until 1 hour after stimulating the macrophages with LPS, although it reduces progressively until disappearing if added after 4 hours (see FIG. 2).

circulating IL-6 = assay: Levels of circulating IL-6 in mice after injection of LPS; type: in vivo; details: 2 hours after 25 μgr LPS, simultaneous 5 nmol peptide
Description: In an experiment carried out with mice the levels of circulating IL-6 2 hours after injection of 25 μgr. of LPS approach 1.5 ngr./ml Simultaneous administration of 5 nmol of VIP or PACAP reduced said levels by 60% and 75% respectively.

[3] = system: lethal effects of LPS in mice; assay: Survival of mice injected with a lethal dose of LPS; type: in vivo; details: 400 μgr LPS; for Survival rate, administration up to 1 hour after LPS: peptide up to 1 hour after LPS; for Survival rate at the end of the experiment: simultaneous 5 nmol peptide, 4-day period
Description: FIG. 6 represents the survival of mice injected with 400 μgr. of LPS and, either simultaneously or after 30 minutes, 1 or 4 hours, with 5 nmol. of VIP or PACAP. A. Control; B: VIP a 0 h.; C: VIP a 0.5 h; D: VIP a 1 h.; E: VIP a 4 h.;
An experiment was carried out in which the survival over a 4-day period was studied of mice that had been injected with 400 μgr. of LPS. The mortality in these circumstances was 100% after 36 hours. With simultaneous administration of 5 nmol. of VIP or PACAP a survival rate of 60% was attained at the end of the experiment. Administration of neuropeptides up to 1 hour after injection with LPS still gave survival rates near to 50%.

## HSDAVFTDNYTRLRKMAVKKYLNSILN [VIP]
[1]
  Degree of inhibition of IL-6 production when added after stimulation with LPS: progressively less
  pIC50: 11.07
  Highest degree of inhibition of IL-6 production: ~90%
Circulating TNFα
  Reduction of circulating TNFα levels: 60%
mRNA of TNFα
  Transcripts for TNFα (Northern blot): absence of transcripts
mRNA of IL-6
  Transcripts for IL-6 (Northern blot): absence of transcripts
[2]
  Inhibitory effect on TNFα production when added after 4 hours: disappearing
  Inhibitory effect on TNFα production when added up until 1 hour after LPS stimulation: the same
  pIC50: ~10.10
  Highest degree of inhibition of TNFα production: ~60%
Circulating IL-6
  Reduction of circulating IL-6 levels: 60%
[3]
  Survival rate, administration up to 1 hour after LPS: ~50%
  Survival rate at the end of the experiment: 60%

## PACAP [two molecular forms PACAP-38 and PACAP-27]
[1]
  Degree of inhibition of IL-6 production when added after stimulation with LPS: progressively less
  pIC50: 11.07
  Highest degree of inhibition of IL-6 production: ~90%
Circulating TNFα
  Reduction of circulating TNFα levels: 60%
mRNA of TNFα
  Transcripts for TNFα (Northern blot): absence of transcripts
mRNA of IL-6
  Transcripts for IL-6 (Northern blot): absence of transcripts
[2]
  Inhibitory effect on TNFα production when added after 4 hours: disappearing
  Inhibitory effect on TNFα production when added up until 1 hour after LPS stimulation: the same
  pIC50: ~10.10
  Highest degree of inhibition of TNFα production: ~60%
Circulating IL-6
  Reduction of circulating IL-6 levels: 75%
[3]
  Survival rate, administration up to 1 hour after LPS: ~50%
  Survival rate at the end of the experiment: 60%
